Results from patent publication US20090221549A1, “ANTIHYPERTENSIVE THERAPY” (Gilead Colorado, Inc., priority 2006, published 2009).

How the values were obtained:
[1] = tested on: patients with resistant hypertension; test: Trough/peak sitting blood pressure by standard sphygmomanometry, randomized placebo-controlled dose-titration study; type: in vivo, human; settings: for Percent of patients achieving SBP goal, Responders, n (%): n = 76
Procedure: In this randomized, double-blind, placebo-controlled, dose-titration study, 115 patients with resistant hypertension as defined by JNC 7 guidelines were randomized 2:1 to receive escalating doses of darusentan (10, 50, 100, 150 and 300 mg) or placebo once daily for 10 weeks. Darusentan dose was increased every 2 weeks.
Patients (35 to 85 years of age) with resistant hypertension as defined by the JNC 7 guidelines and who were treated with and adhered to full doses of JNC 7 recommended antihypertensives, including a diuretic and two or more antihypertensive medications from different drug classes, defined as (a) ACE inhibitors and angiotensin II receptor blockers, (b) beta-adrenergic receptor blockers, and (c) calcium channel blockers, were eligible to participate in the study. Patients also were required to have an estimated glomerular filtration rate (GFR) ≧30 mL/min/1.73 m^2 during the screening period. Women of childbearing potential were required to have a negative serum pregnancy test at the screening visit and a negative urine pregnancy test at baseline, and they must have agreed to use a reliable double-barrier method of contraception throughout the study and for at least 4 weeks after the last study visit. Patients with an average sitting SBP ≧180 mmHg, […], hemoglobin A1c >10%, hemoglobin concentration <10 g/dL, hematocrit <30%, serum thyroid stimulating hormone concentration >1.5× the upper limit of normal (ULN), or serum alanine aminotransferase (ALT) or aspartate aminotransferase (AST)>2×ULN during the screening period were excluded from the study. […] All patients provided written informed consent.
(§1) In this randomized, double-blind, placebo-controlled, dose-titration study, patients were randomized 2:1 to receive escalating doses of darusentan or placebo once daily in the morning for 10 weeks after completing a 2-week placebo run-in period (FIG. 1). Darusentan was initiated at a dose of 10 mg/day and escalated every 2 weeks at doses of 50, 100 and 150 mg/day until reaching a maximum of 300 mg/day. […] Patients were withdrawn from the study if a subsequent dose reduction was required. After completion of the 10-week treatment period, patients were withdrawn from study medication over a maximum of 2 weeks. This study was approved by an Institutional Review Board/Independent Ethics Committee and conducted in accordance with the principles of Good Clinical Practices and the revised Declaration of Helsinki.
(§2) Co-primary efficacy endpoints were the changes from baseline through weeks 8 and 10 (i.e., doses of 150 and 300 mg) in trough sitting SBP. Blood pressure was measured at every study visit (baseline and weeks 2, 4, 6, 8 and 10) using standard sphygmomanometry. Secondary variables included 24-hour SBP as measured by ambulatory blood pressure monitoring (ABPM), percentage of patients who achieved SBP goal, trough sitting DBP, and urinary albumin to creatinine ratio. Ambulatory blood pressure monitoring was recorded once before randomization and repeated during the 24 hours immediately preceding the week 10 study visit. Urine samples for determination of albumin to creatinine ratio were collected at screening, baseline and week 10.
A nonlinear mixed effect model was used for the analysis of change in blood pressure, with comorbidity status as a covariate. This model used all observed blood pressure measurements with no imputation for missing values. Linear contrast statements were used to test the slope through a given time point to test the effect of the dose administered on that week. Estimates of treatment effect were obtained via least square means. Response rates were compared with logistic regression models at each blood pressure measurement with comorbidity status as a covariate; missing values were imputed with last observation carried forward for these models. Safety summaries include all patients who received ≧1 dose of blinded study medication. […]

[2] = tested on: patients with resistant hypertension; test: 24-hour ambulatory blood pressure monitoring (ABPM) at week 10; type: in vivo, human
Procedure: as §1, §2
A nonlinear mixed effect model was used for the analysis of change in blood pressure, with comorbidity status as a covariate. This model used all observed blood pressure measurements with no imputation for missing values. Linear contrast statements were used to test the slope through a given time point to test the effect of the dose administered on that week. Estimates of treatment effect were obtained via least square means. […]

[3] = tested on: patients with resistant hypertension; test: Urinary albumin to creatinine ratio (renal function); type: in vivo, human; settings: for Albumin to creatinine ratio, % Change from baseline, Mean: week 10
Procedure: as §2

[4] = tested on: patients with resistant hypertension; test: Safety and tolerability assessments in the clinical study; type: in vivo, human; settings: for Treatment-emergent adverse events, Patients, %: n = 76
Procedure: as §1
Physical examinations, vital sign measurements, clinical chemistry and hematologic laboratory tests, and electrocardiography were performed at the screening visit and periodically throughout the study. Blood samples were obtained at baseline and at weeks 4 and 10 during study drug treatment to monitor liver function. Additional blood samples were drawn from male patients at baseline and week 10 to assess follicle stimulating hormone, inhibin B, luteinizing hormone and testosterone levels. Male fertility was assessed by analysis of semen samples obtained within 2 weeks before baseline and within 2 weeks before week 10. Adverse events were monitored throughout the study.
A nonlinear mixed effect model was used for the analysis of change in blood pressure, with comorbidity status as a covariate. This model used all observed blood pressure measurements with no imputation for missing values. Linear contrast statements were used to test the slope through a given time point to test the effect of the dose administered on that week. Estimates of treatment effect were obtained via least square means. Response rates were compared with logistic regression models at each blood pressure measurement with comorbidity status as a covariate; missing values were imputed with last observation carried forward for these models. Safety summaries include all patients who received ≧1 dose of blinded study medication.

[5] = tested on: patients with moderate hypertension; settings: 10 to 100 mg/day, no other antihypertensive drugs; cited from earlier work

COc1cc(OC)nc(O[C@H](C(=O)O)C(OC)(c2ccccc2)c2ccccc2)n1 [Darusentan, (+)-(S)-2-[(4,6-dimethoxy-2-pyrimidinyl)oxy]-3-methoxy-3,3-diphenylpropionic acid]
improvements in trough sitting SBP and DBP, dose relation ([1]; 10 to 300 mg once daily, titrated every 2 weeks): dose dependent
Percent of patients achieving SBP goal, Responders, n (%) ([1]; Week 2 (10 mg)): 23 (30.3) n (%)
Percent of patients achieving SBP goal, Responders, n (%) ([1]; Week 4 (50 mg)): 36 (47.4) n (%)
Percent of patients achieving SBP goal, Responders, n (%) ([1]; Week 6 (100 mg)): 34 (44.7) n (%)
Percent of patients achieving SBP goal, Responders, n (%) ([1]; Week 8 (150 mg)): 32 (42.1) n (%)
Percent of patients achieving SBP goal, Responders, n (%) ([1]; Week 10 (300 mg)): 37 (48.7) n (%)
patients achieving SBP goal (JNC 7) ([1]; end of treatment (week 10), placebo 28%): 49%
placebo-adjusted reduction in mean 24-hour systolic ABP ([2]; 300 mg): 9.2±2.2 mmHg
decrease in day-time SBP (ABP) ([2]; placebo 2.2±2.4 mmHg): 10.9±1.4 mmHg
decrease in night-time SBP (ABP) ([2]; placebo 3.8±2.7 mmHg): 11.9±1.6 mmHg
Geometric mean albumin to creatinine ratio, Week 10 ([3]; All observed patients, n 65, baseline 12.6): 9.4 mg/g
Albumin to creatinine ratio, % Change from baseline, Mean ([3]; All observed patients): −25.3%
Geometric mean albumin to creatinine ratio, Week 10 ([3]; Baseline ratio >30 mg/g, n 12, baseline 145.4): 73.6 mg/g
Albumin to creatinine ratio, % Change from baseline, Mean ([3]; Baseline ratio >30 mg/g): −49.4%
Geometric mean albumin to creatinine ratio, Week 10 ([3]; Baseline ratio ≦30 mg/g, n 53, baseline 7.2): 5.9 mg/g
Albumin to creatinine ratio, % Change from baseline, Mean ([3]; Baseline ratio ≦30 mg/g): −18.4%
patients with elevations in ALT or AST >2×ULN ([4]; 10-week treatment): no
Treatment-emergent adverse events, Patients, % ([4]; Arthralgia): (3) %
Treatment-emergent adverse events, Patients, % ([4]; Diarrhea): (1) %
Treatment-emergent adverse events, Patients, % ([4]; Dizziness): (7) %
Treatment-emergent adverse events, Patients, % ([4]; Gastroenteritis): (5) %
Treatment-emergent adverse events, Patients, % ([4]; Nasopharyngitis): (7) %
Treatment-emergent adverse events, Patients, % ([4]; Sinusitis): (8) %
Treatment-emergent adverse events, Patients, % ([4]; Upper respiratory tract infection): (5) %
patients with decrease in hematocrit reported as adverse event ([4]; all events mild): 2 patients
patients with decrease in hemoglobin reported as adverse event ([4]; all events mild): 2 patients
cases of severe peripheral edema ([4]; darusentan group): one case
serious adverse events considered related to study medication ([4]; darusentan group): None and no drug-related serious adverse events
effect on SBP and DBP by comparison with placebo [5]: significantly reduce
